{
  "source": "PubChem BioAssay (NCI)",
  "experiment_in_all_cases": "inhibition of tumour cell growth, NCI panel, 48 h",
  "key": {"UACC-62 melanoma": {"system": "UACC-62 melanoma"}, "SNB-75 CNS": {"system": "SNB-75 CNS"}, "A498 renal": {"system": "A498 renal"}, "OVCAR-4 ovarian": {"system": "OVCAR-4 ovarian"}, "HS 578T breast": {"system": "HS 578T breast"}, "OVCAR-3 ovarian": {"system": "OVCAR-3 ovarian"}, "NCI-H460 lung": {"system": "NCI-H460 lung"}, "HOP-92 NSCLC": {"system": "HOP-92 NSCLC"}, "SF-268 CNS": {"system": "SF-268 CNS"}, "SR leukemia": {"system": "SR leukemia"}, "HCT-15 colon": {"system": "HCT-15 colon"}, "SK-MEL-5 melanoma": {"system": "SK-MEL-5 melanoma"}, "NCI/ADR-RES ovarian": {"system": "NCI/ADR-RES ovarian"}, "TK-10 renal": {"system": "TK-10 renal"}, "RPMI-8226 leukemia": {"system": "RPMI-8226 leukemia"}, "786-0 renal": {"system": "786-0 renal"}, "RXF 393 renal": {"system": "RXF 393 renal"}, "CAKI-1 renal": {"system": "CAKI-1 renal"}, "K-562 leukemia": {"system": "K-562 leukemia"}, "M14 melanoma": {"system": "M14 melanoma"}, "HL-60(TB) leukemia": {"system": "HL-60(TB) leukemia"}, "SN12C renal": {"system": "SN12C renal"}, "BT-549 breast": {"system": "BT-549 breast"}, "HCC-2998 colon": {"system": "HCC-2998 colon"}, "SK-OV-3 ovarian": {"system": "SK-OV-3 ovarian"}, "SK-MEL-28 melanoma": {"system": "SK-MEL-28 melanoma"}, "UO-31 renal": {"system": "UO-31 renal"}, "U251 CNS": {"system": "U251 CNS"}, "MCF7 breast": {"system": "MCF7 breast"}, "PC-3 prostate": {"system": "PC-3 prostate"}, "OVCAR-8 ovarian": {"system": "OVCAR-8 ovarian"}, "IGROV1 ovarian": {"system": "IGROV1 ovarian"}, "SNB-19 CNS": {"system": "SNB-19 CNS"}, "SF-539 CNS": {"system": "SF-539 CNS"}, "A549 NSCLC": {"system": "A549 NSCLC"}, "LOX IMVI melanoma": {"system": "LOX IMVI melanoma"}, "SW-620 colon": {"system": "SW-620 colon"}, "HT29 colon": {"system": "HT29 colon"}, "CCRF-CEM leukemia": {"system": "CCRF-CEM leukemia"}, "ACHN renal": {"system": "ACHN renal"}, "NCI-H23 lung": {"system": "NCI-H23 lung"}, "MOLT-4 leukemia": {"system": "MOLT-4 leukemia"}, "EKVX NSCLC": {"system": "EKVX NSCLC"}, "KM12 colon": {"system": "KM12 colon"}, "OVCAR-5 ovarian": {"system": "OVCAR-5 ovarian"}, "NCI-H226 lung": {"system": "NCI-H226 lung"}, "HCT-116 colon": {"system": "HCT-116 colon"}, "SK-MEL-2 melanoma": {"system": "SK-MEL-2 melanoma"}, "COLO 205 colon": {"system": "COLO 205 colon"}, "MDA-MB-435": {"system": "MDA-MB-435"}, "MDA-MB-231 breast": {"system": "MDA-MB-231 breast"}, "DU-145 prostate": {"system": "DU-145 prostate"}},
  "note": "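48-hour exposure; five concentrations; linearly interpolated endpoints. Here, GI50 denotes the concentration required for 50% inhibition of growth. TGI is the concentration that stops growth completely.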",
  "data": [
    {"molecule": "CCNCCNC(=O)c1ccc(Br)cc1", "values": [
      {"measurement": "TGI", "setting": "UACC-62 melanoma", "result": "> 100", "unit": "µM"},
      {"measurement": "TGI", "setting": "SNB-75 CNS", "result": "> 100", "unit": "µM"},
      {"measurement": "TGI", "setting": "A498 renal", "result": "> 100", "unit": "µM"},
      {"measurement": "TGI", "setting": "OVCAR-4 ovarian", "result": "> 100", "unit": "µM"},
      {"measurement": "TGI", "setting": "HS 578T breast", "result": "> 100", "unit": "µM"},
      {"measurement": "TGI", "setting": "OVCAR-3 ovarian", "result": "> 100", "unit": "µM"},
      {"measurement": "TGI", "setting": "NCI-H460 lung", "result": "> 100", "unit": "µM"},
      {"measurement": "TGI", "setting": "HOP-92 NSCLC", "result": "> 100", "unit": "µM"},
      {"measurement": "TGI", "setting": "SF-268 CNS", "result": "> 100", "unit": "µM"},
      {"measurement": "TGI", "setting": "SR leukemia", "result": "> 100", "unit": "µM"},
      {"measurement": "TGI", "setting": "HCT-15 colon", "result": "> 100", "unit": "µM"},
      {"measurement": "TGI", "setting": "SK-MEL-5 melanoma", "result": "> 100", "unit": "µM"},
      {"measurement": "TGI", "setting": "NCI/ADR-RES ovarian", "result": "> 100", "unit": "µM"},
      {"measurement": "TGI", "setting": "TK-10 renal", "result": "> 100", "unit": "µM"},
      {"measurement": "TGI", "setting": "RPMI-8226 leukemia", "result": "> 100", "unit": "µM"},
      {"measurement": "TGI", "setting": "786-0 renal", "result": "> 100", "unit": "µM"},
      {"measurement": "TGI", "setting": "RXF 393 renal", "result": "> 100", "unit": "µM"},
      {"measurement": "TGI", "setting": "CAKI-1 renal", "result": "> 100", "unit": "µM"},
      {"measurement": "TGI", "setting": "K-562 leukemia", "result": "> 100", "unit": "µM"},
      {"measurement": "TGI", "setting": "M14 melanoma", "result": "> 100", "unit": "µM"},
      {"measurement": "TGI", "setting": "HL-60(TB) leukemia", "result": "> 100", "unit": "µM"},
      {"measurement": "TGI", "setting": "SN12C renal", "result": "> 100", "unit": "µM"},
      {"measurement": "TGI", "setting": "BT-549 breast", "result": "> 100", "unit": "µM"},
      {"measurement": "TGI", "setting": "HCC-2998 colon", "result": "> 100", "unit": "µM"},
      {"measurement": "TGI", "setting": "SK-OV-3 ovarian", "result": "> 100", "unit": "µM"},
      {"measurement": "TGI", "setting": "SK-MEL-28 melanoma", "result": "> 100", "unit": "µM"},
      {"measurement": "TGI", "setting": "UO-31 renal", "result": "> 100", "unit": "µM"},
      {"measurement": "TGI", "setting": "U251 CNS", "result": "> 100", "unit": "µM"},
      {"measurement": "TGI", "setting": "MCF7 breast", "result": "> 100", "unit": "µM"},
      {"measurement": "TGI", "setting": "PC-3 prostate", "result": "> 100", "unit": "µM"},
      {"measurement": "TGI", "setting": "OVCAR-8 ovarian", "result": "> 100", "unit": "µM"},
      {"measurement": "TGI", "setting": "IGROV1 ovarian", "result": "> 100", "unit": "µM"},
      {"measurement": "TGI", "setting": "SNB-19 CNS", "result": "> 100", "unit": "µM"},
      {"measurement": "TGI", "setting": "SF-539 CNS", "result": "> 100", "unit": "µM"},
      {"measurement": "TGI", "setting": "A549 NSCLC", "result": "> 100", "unit": "µM"},
      {"measurement": "TGI", "setting": "LOX IMVI melanoma", "result": "> 100", "unit": "µM"},
      {"measurement": "TGI", "setting": "SW-620 colon", "result": "> 100", "unit": "µM"},
      {"measurement": "TGI", "setting": "HT29 colon", "result": "> 100", "unit": "µM"},
      {"measurement": "TGI", "setting": "CCRF-CEM leukemia", "result": "> 100", "unit": "µM"},
      {"measurement": "TGI", "setting": "ACHN renal", "result": "> 100", "unit": "µM"},
      {"measurement": "TGI", "setting": "NCI-H23 lung", "result": "> 100", "unit": "µM"},
      {"measurement": "TGI", "setting": "MOLT-4 leukemia", "result": "> 100", "unit": "µM"},
      {"measurement": "TGI", "setting": "EKVX NSCLC", "result": "> 100", "unit": "µM"},
      {"measurement": "TGI", "setting": "KM12 colon", "result": "> 100", "unit": "µM"},
      {"measurement": "TGI", "setting": "OVCAR-5 ovarian", "result": "> 100", "unit": "µM"},
      {"measurement": "TGI", "setting": "NCI-H226 lung", "result": "> 100", "unit": "µM"}
    ]},
    {"molecule": "COC(=O)C(Cc1ccccc1)C(=O)C(CC(=O)OC(C)(C)C)NC(=O)OC(C)(C)C", "note": "(stereo unspecified)", "values": [
      {"measurement": "GI50", "setting": "HCT-15 colon", "result": 28.2, "unit": "µg/mL"},
      {"measurement": "GI50", "setting": "UO-31 renal", "result": 24.7, "unit": "µg/mL"},
      {"measurement": "TGI", "setting": "UO-31 renal", "result": 66.8, "unit": "µg/mL"},
      {"measurement": "GI50", "setting": "HCT-116 colon", "result": 26.5, "unit": "µg/mL"},
      {"measurement": "TGI", "setting": "HCT-116 colon", "result": 87.9, "unit": "µg/mL"},
      {"measurement": "GI50", "setting": "A549 NSCLC", "result": 26.2, "unit": "µg/mL"},
      {"measurement": "GI50", "setting": "KM12 colon", "result": 59.7, "unit": "µg/mL"}
    ]},
    {"molecule": "COc1ccccc1Cn1c2c(c3c(C(=O)NCCN(C)C)c(O)ccc31)C(=O)c1ccccc1C2=O", "values": [
      {"measurement": "TGI", "setting": "SNB-75 CNS", "result": 2.96, "unit": "µM"},
      {"measurement": "TGI", "setting": "A498 renal", "result": 41.2, "unit": "µM"},
      {"measurement": "TGI", "setting": "OVCAR-4 ovarian", "result": 3.04, "unit": "µM"},
      {"measurement": "TGI", "setting": "SK-MEL-2 melanoma", "result": 3.46, "unit": "µM"},
      {"measurement": "TGI", "setting": "OVCAR-3 ovarian", "result": 3.36, "unit": "µM"},
      {"measurement": "TGI", "setting": "COLO 205 colon", "result": 3.19, "unit": "µM"},
      {"measurement": "TGI", "setting": "NCI-H460 lung", "result": 4.23, "unit": "µM"},
      {"measurement": "TGI", "setting": "NCI/ADR-RES ovarian", "result": 4.93, "unit": "µM"},
      {"measurement": "TGI", "setting": "K-562 leukemia", "result": 4, "unit": "µM"},
      {"measurement": "TGI", "setting": "HL-60(TB) leukemia", "result": 2.78, "unit": "µM"},
      {"measurement": "TGI", "setting": "BT-549 breast", "result": 64.7, "unit": "µM"},
      {"measurement": "TGI", "setting": "MDA-MB-435", "result": 3.24, "unit": "µM"},
      {"measurement": "TGI", "setting": "HCC-2998 colon", "result": 3.02, "unit": "µM"},
      {"measurement": "TGI", "setting": "SK-OV-3 ovarian", "result": 43.4, "unit": "µM"},
      {"measurement": "TGI", "setting": "SK-MEL-28 melanoma", "result": 3.15, "unit": "µM"},
      {"measurement": "TGI", "setting": "UO-31 renal", "result": 3.33, "unit": "µM"},
      {"measurement": "TGI", "setting": "IGROV1 ovarian", "result": 3.23, "unit": "µM"},
      {"measurement": "TGI", "setting": "SF-539 CNS", "result": 3.09, "unit": "µM"},
      {"measurement": "TGI", "setting": "MDA-MB-231 breast", "result": 3.72, "unit": "µM"},
      {"measurement": "TGI", "setting": "DU-145 prostate", "result": 3.31, "unit": "µM"},
      {"measurement": "TGI", "setting": "HT29 colon", "result": 3.47, "unit": "µM"},
      {"measurement": "TGI", "setting": "OVCAR-5 ovarian", "result": 3.62, "unit": "µM"},
      {"measurement": "TGI", "setting": "NCI-H226 lung", "result": 51.5, "unit": "µM"}
    ]}
  ]
}
